Source: patent US20240059703A1 (AMGEN INC., priority 2021, published 2024)
pIC50: −log10 of the molar value.

How the values were obtained:
KRAS G12C = KRAS G12C (Homo sapiens (Human), UniProt P01116, C118A/G12C); experiment: 2 h coupled exchange assay; format: biochemical; details: Avg 2 h Coupled exchange IC50, 2 h compound pre-incubation
Protocol: The term “2 h coupled exchange assay” or “20 h coupled exchange assay” as used herein refers to the assay described in the Section entitled “BIOLOGICAL EVALUATION.”

[1] = system: MIA PaCa-2 (human pancreatic carcinoma) cells; experiment: Cell Viability Assay (CellTiter-Glo), MIA PaCa-2; format: cell-based; details: Homo sapiens, MIA PaCa-2, 72 h
Protocol: Serially-diluted compound or DMSO was added to the cells, and plates were incubated at 37° C., 5% CO2 for 72 h. Cell viability was measured using a CellTiter-Glo® Luminescent Cell Viability Assay kit (Promega) according to the manufacturer's protocol. The luminescence signal of treated samples was normalized to DMSO control, and data were analyzed using a 4-parameter logistic model to calculate IC50 values.

[2] = system: A549 (human lung carcinoma) cells; experiment: Cell Viability Assay (CellTiter-Glo), A549; format: cell-based; details: Homo sapiens, A549, 72 h
Procedure, shortened: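 RPMI 1640/10% FBS; seed 1.67E+04 cells/mL, o/n 37° C., 5% CO2; serial-dilution cmpd 72 h; CellTiter-Glo luminescence vs DMSO; 4-parameter logistic fit → IC50.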

Chain of KRAS G12C (P01116 other isoform, or with tags, fused parts or gaps G12C/C118A): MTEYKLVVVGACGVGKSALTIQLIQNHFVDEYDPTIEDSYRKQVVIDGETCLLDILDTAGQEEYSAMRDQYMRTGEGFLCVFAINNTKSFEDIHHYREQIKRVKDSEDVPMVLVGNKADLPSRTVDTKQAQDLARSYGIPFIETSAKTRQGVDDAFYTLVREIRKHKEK

Compound	pIC50 (KRAS G12C)	pIC50 [1]	pIC50 [2]
C=CC(=O)N1CC2(CCN(c3nc4cc(-c5nccn5C)ccc4c(-c4ccccc4Cl)c3C#N)C2)C1 [Example 15-7, 4-(2-chlorophenyl)-7-(1-methyl-1H-imidazol-2-yl)-2-(2-(2-propenoyl)-2,6-diazaspiro[3.4]octan-6-yl)-3-quinolinecarbonitrile]	6.94	6.02	5.38
C=CC(=O)N1CC2(CCN(c3nc4cc(-c5ccnn5C)ccc4c(-c4ccccc4Cl)c3C)C2)C1 [Example 16-1, 1-(6-(4-(2-chlorophenyl)-3-methyl-7-(1-methyl-1H-pyrazol-5-yl)quinolin-2-yl)-2,6-diazaspiro[3.4]octan-2-yl)prop-2-en-1-one]	6.55	< 5.30	< 5.30
C=CC(=O)N1CC2(CCN(c3nc4cc(-c5ccnn5C)ccc4c(-c4cc(O)ccc4Cl)c3C)C2)C1 [Example 16-9, 1-(6-(4-(2-chloro-5-hydroxyphenyl)-3-methyl-7-(1-methyl-1H-pyrazol-5-yl)-2-quinolinyl)-2,6-diazaspiro[3.4]octan-2-yl)-2-propen-1-one]	7.22	5.88	< 5.30
C=CC(=O)N1CC2(C1)CN(c1nc3cc(-c4ccnn4C)ccc3c(-c3ccccc3Cl)c1C#N)CC2(F)F [Example 17-2, 4-(2-chlorophenyl)-2-(8,8-difluoro-2-(2-propenoyl)-2,6-diazaspiro[3.4]octan-6-yl)-7-(1-methyl-1H-pyrazol-5-yl)-3-quinolinecarbonitrile]	7.01	5.73	5.52
C=CC(=O)N1CC2(CCN(c3nc4cc(-n5ccnc5C)ccc4c(-c4ccccc4Cl)c3C#N)C2)C1 [Example 17-3, 4-(2-chlorophenyl)-7-(2-methyl-1H-imidazol-1-yl)-2-(2-(2-propenoyl)-2,6-diazaspiro[3.4]octan-6-yl)-3-quinolinecarbonitrile]	7.44	6.16	5.73
C=CC(=O)N1CC2(CCN(c3nc4cc(-n5ccnc5C)ccc4c(-c4ccccc4F)c3C#N)C2)C1 [Example 17-5, 4-(2-fluorophenyl)-7-(2-methyl-1H-imidazol-1-yl)-2-(2-(2-propenoyl)-2,6-diazaspiro[3.4]octan-6-yl)-3-quinolinecarbonitrile]	7.15	5.90	5.35
C=CC(=O)N1CC2(CCN(c3nc4cc(-n5cncc5C)ccc4c(-c4ccccc4F)c3C#N)C2)C1 [Example 17-6, 4-(2-fluorophenyl)-7-(5-methyl-1H-imidazol-1-yl)-2-(2-(2-propenoyl)-2,6-diazaspiro[3.4]octan-6-yl)-3-quinolinecarbonitrile]	6.83	5.66	5.36
C=CC(=O)N1CC2(CCN(c3nc4cc(-n5cncc5C)ccc4c(-c4ccccc4Cl)c3C#N)C2)C1 [Example 17-7, 4-(2-chlorophenyl)-7-(5-methyl-1H-imidazol-1-yl)-2-(2-(2-propenoyl)-2,6-diazaspiro[3.4]octan-6-yl)-3-quinolinecarbonitrile]	6.90	5.74	5.51

Continued, values first:

pIC50 (KRAS G12C)	pIC50 [1]	pIC50 [2]	Compound
7.43	7.64	< 5.30	C=CC(=O)N1CC2(CCN(c3nc4c(c(-c5cccc6cc(O)ccc56)c3C)CCN(C(C)C)C4)C2)C1 [Example 18-1, 1-(6-(4-(6-Hydroxy-1-naphthalenyl)-3-methyl-7-(2-propanyl)-5,6,7,8-tetrahydro-1,7-naphthyridin-2-yl)-2,6-diazaspiro[3.4]octan-2-yl)-2-propen-1-one]
6.57	7.03	< 5.30	C=CC(=O)N1CC2(CCN(c3nc4c(c(-c5c(C)ccc6[nH]ncc56)c3C)CCN(C(C)C)C4)C2)C1 [Example 18-2, 1-(6-(3-methyl-4-(5-methyl-1H-indazol-4-yl)-7-(2-propanyl)-5,6,7,8-tetrahydro-1,7-naphthyridin-2-yl)-2,6-diazaspiro[3.4]octan-2-yl)-2-propen-1-one]
6.64	6.86	< 5.30	C=CC(=O)N1CC2(CCN(c3nc4c(c(-c5cc(O)cc6ccccc56)c3C)CCN(C(C)C)C4)C2)C1 [Example 18-3, 1-(6-(4-(3-hydroxy-1-naphthalenyl)-3-methyl-7-(2-propanyl)-5,6,7,8-tetrahydro-1,7-naphthyridin-2-yl)-2,6-diazaspiro[3.4]octan-2-yl)-2-propen-1-one]
6.00	6.26	4.82	C=CC(=O)N1CC2(CCN(c3nc4c(c(-c5cccc6c5NCCC6)c3C)CCN(C(C)C)C4)C2)C1 [Example 18-5, 1-(6-(3-methyl-7-(2-propanyl)-4-(1,2,3,4-tetrahydro-8-quinolinyl)-5,6,7,8-tetrahydro-1,7-naphthyridin-2-yl)-2,6-diazaspiro[3.4]octan-2-yl)-2-propen-1-one]
7.10	7.15	< 5.30	C=CC(=O)N1CC2(CCN(c3nc4c(c(-c5cccc6cc(O)ccc56)c3C)CCN(C)C4)C2)C1 [Example 18-6, 1-(6-(4-(6-hydroxy-1-naphthalenyl)-3,7-dimethyl-5,6,7,8-tetrahydro-1,7-naphthyridin-2-yl)-2,6-diazaspiro[3.4]octan-2-yl)-2-propen-1-one]
7.15	7.19	< 5.30	C=CC(=O)N1CC2(CCN(c3nc4c(c(-c5cccc6cc(O)ccc56)c3C)CCN(C3COC3)C4)C2)C1 [Example 18-7, 1-(6-(4-(6-hydroxy-1-naphthalenyl)-3-methyl-7-(3-oxetanyl)-5,6,7,8-tetrahydro-1,7-naphthyridin-2-yl)-2,6-diazaspiro[3.4]octan-2-yl)-2-propen-1-one]
7.33	6.77	< 5.30	C=CC(=O)N1CC2(CCN(c3nc4c(c(-c5cccc6cc(O)ccc56)c3C)CCN(C(C)COC)C4)C2)C1 [Example 18-8, 1-(6-(4-(6-hydroxy-1-naphthalenyl)-7-((2R)-1-methoxy-2-propanyl)-3-methyl-5,6,7,8-tetrahydro-1,7-naphthyridin-2-yl)-2,6-diazaspiro[3.4]octan-2-yl)-2-propen-1-one|1-(6-(4-(6-hydroxy-1-naphthalenyl)-7-((2S)-1-methoxy-2-propanyl)-3-methyl-5,6,7,8-tetrahydro-1,7-naphthyridin-2-yl)-2,6-diazaspiro[3.4]octan-2-yl)-2-propen-1-one]
6.38	6.50	< 5.30	C=CC(=O)N1CC2(CCN(c3nc4c(c(-c5cc(O)ccc5Cl)c3C)CCN(C(C)C)C4)C2)C1 [Example 18-9, 1-(6-(4-(2-chloro-5-hydroxyphenyl)-3-methyl-7-(2-propanyl)-5,6,7,8-tetrahydro-1,7-naphthyridin-2-yl)-2,6-diazaspiro[3.4]octan-2-yl)-2-propen-1-one]
6.59	6.42	< 5.30	C=CC(=O)N1CC2(CCN(c3nc4c(c(-c5cccc6cc(O)ccc56)c3C)CCN(C(C)=O)C4)C2)C1 [Example 18-10, 1-(6-(7-acetyl-4-(6-hydroxy-1-naphthalenyl)-3-methyl-5,6,7,8-tetrahydro-1,7-naphthyridin-2-yl)-2,6-diazaspiro[3.4]octan-2-yl)-2-propen-1-one]
